A short description of series [1]: Clearance in human liver microsomes at 1 uM followed by NADPH addition measured up to 60 mins by LC-MS/MS analysis relative to hepatic blood flow. The series is classed as ADME, Microsome. Conditions: read-out: CLH.
Series [2] in a line: Clearance in human hepatocytes at 1 uM measured up to 6 hrs by LC-MS/MS analysis relative to hepatic blood flow. The series is classed as ADME, cell-based, Hepatocyte. The conditions noted are these: read-out: CLH.

Results on ten molecules are retold here after ChEMBL document CHEMBL4834489 (ACS Med Chem Lett, 2021).

Take `Cc1c(C(=O)NCC(C)(C)O)sc2ncn(Cc3nc(C[C@H](O)c4ccc(Cl)cc4)no3)c(=O)c12`: in series [1], the hepatic extraction ratio at 1 h, 1 µM was < 0.23. In addition, the hepatic extraction ratio at 6 h, 1 µM in series [2] amounted to 0.18.
On the same counts, the results for `O=C1NCCc2c1sc1ncn(Cc3nc(C[C@H](O)c4ccc(Cl)cc4)no3)c(=O)c21` are < 0.23 and 0.31.
Consider `Cc1c(C(N)=O)sc2ncn(Cc3nc(C[C@H](O)c4cc5ccccc5o4)no3)c(=O)c12`, for which the hepatic extraction ratio at 1 h, 1 µM in series [1] was < 0.23. Further, the hepatic extraction ratio at 6 h, 1 µM in series [2] is 0.36.
For `NC(=O)c1sc2ncn(Cc3nc(C[C@H](O)c4ccc(Cl)cc4)no3)c(=O)c2c1Cl`, in that order: < 0.23 and 0.39.
Take `Cc1c(C(N)=O)sc2ncn(Cc3nc(C[C@H](O)c4cc(F)cc(F)c4)no3)c(=O)c12`: the hepatic extraction ratio at 1 h, 1 µM in series [1] was < 0.23. Further, in series [2], the hepatic extraction ratio at 6 h, 1 µM turned out to be 0.23.
With `CNC(=O)c1sc2ncn(Cc3nc(C[C@H](O)c4ccc5c(c4)OCO5)no3)c(=O)c2c1C`, the hepatic extraction ratio at 1 h, 1 µM in series [1] came out at 0.29. Further, the hepatic extraction ratio at 6 h, 1 µM in series [2] amounted to 0.24.
Regarding `Cc1c(C(=O)NCC(F)F)sc2ncn(Cc3nc(C[C@H](O)c4ccc(Cl)cc4)no3)c(=O)c12`, in series [1], the hepatic extraction ratio at 1 h, 1 µM worked out at 0.24. Moreover, the hepatic extraction ratio at 6 h, 1 µM in series [2] turned out to be 0.36.
`CNC(=O)c1sc2ncn(Cc3nc(C[C@H](O)c4ccc(Cl)cc4)no3)c(=O)c2c1C`: the hepatic extraction ratio at 1 h, 1 µM in series [1] was < 0.23. The hepatic extraction ratio at 6 h, 1 µM in series [2] was determined as 0.29.
In the case of `Cc1c(C(N)=O)sc2ncn(Cc3nc(C[C@H](O)c4ccc5c(c4)OCO5)no3)c(=O)c12`, in series [1], the hepatic extraction ratio at 1 h, 1 µM is < 0.23. Further, the hepatic extraction ratio at 6 h, 1 µM in series [2] turned out to be 0.24.
On the same counts, the results for `Cc1c(C(N)=O)sc2ncn(Cc3nc(C[C@H](O)c4ccc(Cl)cc4)no3)c(=O)c12` are 0.29 and 0.25.
